Here are results for two compounds from patent publication US20240092756A1, “METHODS AND COMPOSITION FOR KRAS MODIFICATIONS” (2692372 ONTARIO, INC., priority 2020, published 2024).

In assay [1] the target is KRAS G12C Lite (SEQ ID NO:3) (Homo sapiens, UniProt P01116, C118S/C51S/C80S/G12C/S136P/S39C). Nature of the assay: Intact mass analysis (LC-MS) of covalent modification, KRAS G12C Lite. Type of assay: binding. The arrangement: key to KRAS Lite Modification: a: KRAS Lite modified. The settings on record: intact mass spectrometry; covalent modification of KRAS G12C Lite. The procedure, abridged:
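Protein (2 μM) reacted with compound (100 μM) for 24 h at 25° C in 20 mM HEPES pH 8, 150 mM NaCl, 2% DMSO, 2% glycerol, then analysed by intact-mass LC-MS (C4 column, positive-ion TOF). Up to 8 cysteine adducts allowed on deconvolution; adducts <2% of base peak ignored. % modification = adduct intensity over total protein plus adduct intensities.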

The subject of assay [2] is phospho-ERK1/2 in MIA PaCa-2 cells (express KRAS G12C). Nature of the assay: ERK1/2 phosphorylation in MIA PaCa-2 cells. Type of assay: cell-based, human. Also noted: key: X: KRAS G12C bound and modulated in cells.
A further assay deals with KRAS G12C Lite (Homo sapiens, UniProt P01116, C118S/C51S/C80S/G12C/S136P/S39C). In words: Differential scanning fluorimetry, KRAS G12C Lite. Type of assay: binding. The arrangement: key: Y: protein destabilized; N: protein not destabilized. The settings on record: 37° C. 5 hours incubation. As for the experimental part:
KRas proteins at 0.05 mg/ml in buffer Hepes, 147 mM NaCl, 2% glycerol, 5 mM MgCl2, 1 mM EDTA, 10 μM GDP, pH 8.0 were incubated in the presence desired concentration of compounds (5% DMSO final concentration) at 37° C. for 5 hours. After incubation, Sypro Oange to a final concentration of 5× was added to each sample. 20 μl aliquots of samples were transferred PCR tubes, sealed with caps, and run in a BioRad CFX96 RTPCR thermocycler. In the instrument, the samples were heated at a rate of 1° C./min from 25 to 90 degrees. Fluorescence readings were taken every 1 degree. The data generated was exported and analyzed using GraphPad-Prism software. The denaturation curves were fit using a Boltzmann sigmoidal equation to calculate melting temperatures (Tm).

The structures appear in SMILES notation.

As to `Cc1ccnc(C(C)C)c1-n1c(=O)nc(NC2CN(S(=O)(=O)c3c(F)c(F)c(F)c(F)c3C(F)(F)F)C2)c2cc(F)c(Cl)nc21` [Compound 14A, 7-chloro-6-fluoro-1-(2-isopropyl-4-methylpyridin-3-yl)-4-((1-((2,3,4,5-tetrafluoro-6-(trifluoromethyl)phenyl)sulfonyl)azetidin-3-yl)amino)pyrido[2,3-d]pyrimidin-2(1H)-one], the “KRAS Lite Modification” value in assay [1] was “a”. Also, the “pERK - MIA PaCa-2 - (6 hours, 5 uM)” value in assay [2] was “X”. The “KRAS G12C Lite DSF ΔTm” value on KRAS G12C Lite was “Y”.
In the case of `Cc1ccnc(C(C)C)c1-n1c(=O)nc(NC2CN(S(=O)(=O)c3c(F)c(F)c(F)c(F)c3C(F)(F)F)C2)c2cc(F)c(-c3c(O)cccc3F)nc21` [Compound 15A, 6-fluoro-7-(2-fluoro-6-hydroxyphenyl)-1-(2-isopropyl-4-methylpyridin-3-yl)-4-((1-((2,3,4,5-tetrafluoro-6-(trifluoromethyl)phenyl)sulfonyl)azetidin-3-yl)amino)pyrido[2,3-d]pyrimidin-2(1H)-one], the “KRAS Lite Modification” value in assay [1] was “a”. Moreover, the “pERK - MIA PaCa-2 - (6 hours, 5 uM)” value in assay [2] is on record as “X”. The “KRAS G12C Lite DSF ΔTm” value on KRAS G12C Lite was “Y”.
